Read-outs that look alike come from different tables or passages of the source.

The values that follow come from US20080221060A1, “Therapeutic Compounds” (priority 2004, published 2008).

The target of the assay is adenosine receptors (rat striatal membranes, [3H]-CGS21680) (Rattus norvegicus, UniProt P30543). As to the kind of experiment: Ki from displacement of [3H]-CGS21680 in rat striatal membranes at pH 5.5 and pH 7.4. In kind it is binding. On the set-up: from tissue; host or cells: rat striatum (membranes). Conditions: 2 nM [3H]-CGS21680, 90 minutes at 22° C.
adenosine receptors (rat striatal membranes, [3H]-CGS21680), sequence (P30543 whole entry): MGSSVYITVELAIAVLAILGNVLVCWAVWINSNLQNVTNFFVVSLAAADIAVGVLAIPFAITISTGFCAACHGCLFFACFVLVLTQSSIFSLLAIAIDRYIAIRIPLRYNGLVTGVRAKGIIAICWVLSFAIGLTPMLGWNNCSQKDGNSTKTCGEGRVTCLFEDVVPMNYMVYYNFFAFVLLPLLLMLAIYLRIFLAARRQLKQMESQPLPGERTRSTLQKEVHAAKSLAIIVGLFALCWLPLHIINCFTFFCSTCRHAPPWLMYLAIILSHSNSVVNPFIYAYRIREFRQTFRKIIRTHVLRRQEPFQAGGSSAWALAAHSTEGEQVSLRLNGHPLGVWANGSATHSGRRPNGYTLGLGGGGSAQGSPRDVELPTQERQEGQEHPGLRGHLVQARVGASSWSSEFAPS
The mark [1] stands for this setting: pH 5.5, read-out: (Ki) nM (pH 5.5).
[2] abbreviates: pH 7.4, read-out: (Ki) nM (pH 7.4).

`Nc1nc(OCC(F)F)nc2c1ncn2[C@@H]1O[C@H](CO)[C@@H](O)[C@H]1O` [Compound 2]: the Ki under setting [1] was 17 nM and the Ki under setting [2] was found to be 780 nM. For `Nc1nc(OCC2CC2)nc2c1ncn2[C@@H]1O[C@H](CO)[C@@H](O)[C@H]1O` [Compound 3], in that order: 39 nM and 670 nM.

Take `CCCCOc1nc(N)c2ncn([C@@H]3O[C@H](CO)[C@@H](O)[C@H]3O)c2n1` [Compound 4]: the Ki turned out to be 11 nM under setting [1] and 280 nM under setting [2]. For `CCCCCCOc1nc(N)c2ncn([C@@H]3O[C@H](CO)[C@@H](O)[C@H]3O)c2n1` [Compound 5], in that order: 3 nM and 1500 nM. For `Nc1nc(Oc2ccccc2)nc2c1ncn2[C@@H]1O[C@H](CO)[C@@H](O)[C@H]1O` [Compound 6, 2-phenoxyadenosine], in that order: 71 nM and 2500 nM.

As to `N#Cc1ccc(Oc2nc(N)c3ncn([C@@H]4O[C@H](CO)[C@@H](O)[C@H]4O)c3n2)cc1` [Compound 7], the Ki runs as follows: under setting [1], 4 nM; under setting [2], 1300 nM. The matching figures for `Nc1nc(Oc2cccc(-c3ccccc3)c2)nc2c1ncn2[C@@H]1O[C@H](CO)[C@@H](O)[C@H]1O` [Compound 8]: 0.7 nM and 620 nM. The matching figures for `Nc1nc(Oc2cc(F)ccc2F)nc2c1ncn2[C@@H]1O[C@H](CO)[C@@H](O)[C@H]1O` [Compound 9]: 16 nM and 2500 nM.

`Nc1nc(Oc2ccc(F)cc2F)nc2c1ncn2[C@@H]1O[C@H](CO)[C@@H](O)[C@H]1O` [Compound 10]: the Ki is 16 nM under setting [1] and 6400 nM under setting [2]. As for `Nc1nc(Oc2ccc(F)c(F)c2)nc2c1ncn2[C@@H]1O[C@H](CO)[C@@H](O)[C@H]1O` [Compound 11], the Ki is, setting by setting: under setting [1], 63 nM; under setting [2], 3300 nM. For `Nc1nc(Oc2cc(F)cc(F)c2F)nc2c1ncn2[C@@H]1O[C@H](CO)[C@@H](O)[C@H]1O` [Compound 12], in that order: 46 nM and 5900 nM. The matching figures for `Cc1cc(Oc2nc(N)c3ncn([C@@H]4O[C@H](CO)[C@@H](O)[C@H]4O)c3n2)ccc1F` [Compound 13]: 43 nM and 3100 nM. With `Cc1ccccc1Oc1nc(N)c2ncn([C@@H]3O[C@H](CO)[C@@H](O)[C@H]3O)c2n1` [Compound 14], under setting [2], the Ki amounted to 22000 nM. Consider `Nc1nc(Oc2cccc(Br)c2)nc2c1ncn2[C@@H]1O[C@H](CO)[C@@H](O)[C@H]1O` [Compound 15], for which the Ki runs as follows: under setting [1], 35 nM; under setting [2], 590 nM.

Take `Cc1ccc(Oc2nc(N)c3ncn([C@@H]4O[C@H](CO)[C@@H](O)[C@H]4O)c3n2)cc1` [Compound 16]: the Ki stood at 3.4 nM under setting [1] and 720 nM under setting [2]. The matching figures for `Nc1nc(Oc2ccc3c(c2)CCC3)nc2c1ncn2[C@@H]1O[C@H](CO)[C@@H](O)[C@H]1O` [Compound 17]: 12 nM and 760 nM. For `CC(C)c1cccc(Oc2nc(N)c3ncn([C@@H]4O[C@H](CO)[C@@H](O)[C@H]4O)c3n2)c1` [Compound 18], in that order: 16 nM and 560 nM.

Consider `CNc1nc(N)c2ncn([C@@H]3O[C@H](CO)[C@@H](O)[C@H]3O)c2n1` [Compound 19], for which, under setting [2], the Ki worked out at 1360 nM.

Take `CN(C)c1nc(N)c2ncn([C@@H]3O[C@H](CO)[C@@H](O)[C@H]3O)c2n1` [Compound 21]: the Ki under setting [2] is 13300 nM.

For the compound `CC[C@@H](C)Nc1nc(N)c2ncn(C3OC(CO)C(O)C3O)c2n1` (some centres unmarked) [Compound 22], the Ki under setting [1] was 33 nM and the Ki under setting [2] amounted to 510 nM. For `CC[C@H](C)Nc1nc(N)c2ncn(C3OC(CO)C(O)C3O)c2n1` (some centres unmarked) [Compound 23], in that order: 29 nM and 1400 nM. For `CCCCCCNc1nc(N)c2ncn([C@@H]3O[C@H](CO)[C@@H](O)[C@H]3O)c2n1` [Compound 24], in that order: 0.7 nM and 290 nM. As for `Nc1nc(NC2CC3CCC2C3)nc2c1ncn2[C@@H]1O[C@H](CO)[C@@H](O)[C@H]1O` (some centres unmarked) [Compound 25], the Ki by setting is: under setting [1], 5.5 nM; under setting [2], 120 nM. For `Nc1nc(Nc2ccccc2)nc2c1ncn2[C@@H]1O[C@H](CO)[C@@H](O)[C@H]1O` [Compound 26, 2-phenylamino adenosine], in that order: 5 nM and 160 nM. The matching figures for `COc1ccc(Nc2nc(N)c3ncn([C@@H]4O[C@H](CO)[C@@H](O)[C@H]4O)c3n2)cc1` [Compound 27, 2-(4-methoxyphenylamino) adenosine]: 3 nM and 55 nM. For the compound `Nc1nc(Nc2ccc(F)cc2)nc2c1ncn2[C@@H]1O[C@H](CO)[C@@H](O)[C@H]1O` [Compound 28], the Ki was 10 nM under setting [1] and 200 nM under setting [2]. The matching figures for `Nc1nc(NC2CCCC2)nc2c1ncn2[C@@H]1O[C@H](CO)[C@@H](O)[C@H]1O` [Compound 29]: 2 nM and 420 nM. The matching figures for `Nc1nc(NC2CCCCC2)nc2c1ncn2[C@@H]1O[C@H](CO)[C@@H](O)[C@H]1O` [Compound 30, 2-cyclohexylamino adenosine]: 0.4 nM and 1000 nM. The matching figures for `CC(C)CCN(C)c1nc(N)c2ncn([C@@H]3O[C@H](CO)[C@@H](O)[C@H]3O)c2n1` [Compound 31]: 26 nM and 4000 nM. Consider `Nc1nc(OCC2CCCC2)nc2c1ncn2[C@@H]1O[C@H](CO)[C@@H](O)[C@H]1O` [Compound 32], for which the Ki reads like this: under setting [1], 0.2 nM; under setting [2], 200 nM.

`CCS(=O)(=O)c1nc(N)c2ncn([C@@H]3O[C@H](CO)[C@@H](O)[C@H]3O)c2n1` [Compound 33]: the inhibitory constant (Ki) is 100 nM under setting [1] and 39000 nM under setting [2].

Regarding `Nc1nc(OCCO)nc2c1ncn2[C@@H]1O[C@H](CO)[C@@H](O)[C@H]1O` [Compound 34, 2-(β-hydroxyethoxy)-adenosine], the inhibitory constant (Ki) under setting [1] was 4 nM and the Ki under setting [2] amounted to 203 nM. The matching figures for `Nc1nc(OC2CC(F)(F)C2(F)F)nc2c1ncn2[C@@H]1O[C@H](CO)[C@@H](O)[C@H]1O` (some centres unmarked) [Compound 35]: 11 nM and 220 nM.

Regarding `N#Cc1nc(N)c2ncn([C@@H]3O[C@H](CO)[C@@H](O)[C@H]3O)c2n1` [Compound 38], the inhibition constant (Ki) was found to be 25 nM under setting [1] and 175 nM under setting [2]. For `NC(=O)c1nc(N)c2ncn([C@@H]3O[C@H](CO)[C@@H](O)[C@H]3O)c2n1` [Compound 39], in that order: 23 nM and 610 nM.

Consider `CN(C)c1ncnc2c1ncn2[C@@H]1O[C@H](CO)[C@@H](O)[C@H]1O` [Compound 41], for which the Ki amounted to 42 nM ((Ki) nM (pH 5.5), pH 5.5) and 450000 nM ((Ki) nM (pH 7.4), pH 7.4). The matching figures for `CC(C)=CCNc1ncnc2c1ncn2[C@@H]1O[C@H](CO)[C@@H](O)[C@H]1O` [Compound 42]: 91.5 nM and 8600 nM. Consider `CN(Cc1ccccc1)c1ncnc2c1ncn2[C@@H]1O[C@H](CO)[C@@H](O)[C@H]1O` [Compound 43], for which the Ki is 7 nM under setting [1] and 18500 nM under setting [2]. The matching figures for `CN(Cc1cccc(Br)c1)c1ncnc2c1ncn2[C@@H]1O[C@H](CO)[C@@H](O)[C@H]1O` [Compound 44]: 29 nM and 7500 nM. For `CN(Cc1cccc(C(F)(F)F)c1)c1ncnc2c1ncn2[C@@H]1O[C@H](CO)[C@@H](O)[C@H]1O` [Compound 45], in that order: 3.8 nM and 20000 nM.

On to `OC[C@H]1O[C@@H](n2cnc3c(N4CCNCC4)ncnc32)[C@H](O)[C@@H]1O` [Compound 46], for which the inhibitory constant (Ki) turned out to be 38 nM under setting [1] and 5000 nM under setting [2]. As for `COCCN(C)c1ncnc2c1ncn2[C@@H]1O[C@H](CO)[C@@H](O)[C@H]1O` [Compound 47], the inhibition constant (Ki) reads like this: under setting [1], 13 nM; under setting [2], 13000 nM. On to `OC[C@H]1O[C@@H](n2cnc3c(OCC4CCCC4)ncnc32)[C@H](O)[C@@H]1O` [Compound 48], for which the inhibition constant (Ki) reads like this: under setting [1], 140 nM; under setting [2], 21000 nM.

With `CC(C)NC(=O)[C@H]1O[C@@H](n2cnc3c(N)ncnc32)[C@H](O)[C@@H]1O` [Compound 49], the Ki under setting [1] was found to be 5 nM and the Ki under setting [2] stood at 1930 nM. For the compound `NC(=O)[C@H]1O[C@@H](n2cnc3c(N)ncnc32)[C@H](O)[C@@H]1O` [Compound 50], the Ki came to 9 nM under setting [1] and 270 nM under setting [2]. For `CNc1ncnc2c1ncn2[C@@H]1O[C@H](C(=O)NC(C)C)[C@@H](O)[C@H]1O` [Compound 51], in that order: 188 nM and 2440 nM. For `CC(C)CCNc1ncnc2c1ncn2[C@@H]1O[C@H](C(=O)NC(C)C)[C@@H](O)[C@H]1O` [Compound 52], in that order: 39 nM and 1300 nM. In the case of `COc1nc(N)c2ncn([C@@H]3O[C@H](C(=O)Nc4ccccc4)[C@@H](O)[C@H]3O)c2n1` [Compound 53], the Ki by setting is: under setting [1], 230 nM; under setting [2], 26100 nM. The matching figures for `CCCCCCNc1nc(N)c2ncn([C@@H]3O[C@H](C(=O)NCCCC)[C@@H](O)[C@H]3O)c2n1` [Compound 54]: 0.3 nM and 540 nM.

`CCCC(=O)NC[C@H]1O[C@@H](n2cnc3c(N)ncnc32)[C@H](O)[C@@H]1O` [Compound 55]: the Ki amounted to 145 nM under setting [1] and 16900 nM under setting [2]. For `CCNC(=O)NC[C@H]1O[C@@H](n2cnc3c(N)ncnc32)[C@H](O)[C@@H]1O` [Compound 56], in that order: 40 nM and 6570 nM.

As for `CN(C)c1nc(NC2CCCCC2)nc2c1ncn2[C@@H]1O[C@H](CO)[C@@H](O)[C@H]1O` [Compound 57], the Ki worked out at 2.6 nM under setting [1] and 18000 nM under setting [2].
